{"source": "patent US8318950B2", "about": "“N-acyl amino acid derivatives, a method for the preparation thereof, a pharmaceutical composition and use thereof as anti-allergic, anti-inflammatory and hypolipidemic agents” (Otkrytoe Aktsionernoe Obschestvo-Otechestvennye Lekarstva, priority 2005, dated 2012)", "key": {"[1]": {"system": "endogenous hypercholesterolemia in guinea pigs", "experiment": "Model of endogenous hypercholesterolemia in guinea pigs (fat loading)", "format": "in vivo, guinea pig", "parameters": "Serum total cholesterol / Serum total triglyceride levels: unit not given here", "settings": "for Serum total cholesterol / Serum total triglyceride levels: fat loading + compound 500 μg/kg orally", "procedure": "The study was carried out on male guinea pigs (Aguti line) weighing 304±25 g. The experiment lasted 31 days. The control group included 6 guinea pigs (intact animals). The compounds studied were administered from day 1 of the experiment (from day 1 of administering fat loading).\nThe animals of experimental groups received orally for 31 days a compound studied and fat loading. The compound studied at doses indicated below was administered in the form of an aqueous solution (0.5 ml per an animal); fat loading (a mixture of porcine fat and preliminary heated corn oil at 4:1 ratio by volume, at the rate of 5 ml/kg weight 0.5 h post administering the substance studied.\n1) “control”—intact animals;\n2) “fat”—animals that received fat loading only\n3) “compound IV”—animals that received fat loading+compound IV at dose 500 μg/kg body weight;\n4) “compound V”—animals that received fat loading+compound V at dose 500 μg/kg body weight.\nStatistical processing was carried out using a mono-factorial analysis of variance."}, "[2]": {"system": "allergic pneumonitis in guinea pigs", "experiment": "Model of allergic pneumonitis in guinea pigs (broncho-alveolar wash-off cytology)", "format": "in vivo, guinea pig", "settings": "0.1% solution, inhalations daily for 6 days", "procedure": "The model of allergic pneumonitis in guinea pigs was used.\nImmunization of the animals was similar to that described in Example 7.\n24 hours post the last ovalbumin administration broncho-alveolar wash-off was collected (through a cannula inserted into the trachea), and changes in bronchial mucosa was assessed using a complex of histological and cytological methods.\nThe compounds tested (0.1% solution) were daily administered in the form of inhalations using a nebulizing device for 6 days; at day 6 of administration, antigen (OA) challenge was performed.\nBroncho-alveolar wash-off was obtained in rats and guinea pigs under hexenal anesthesia by double washing the lungs through the trachea with 10 ml normal saline. Viability of cells was determined in the test with tryptane blue. Absolute number of cells in 1 ml (cytosis) was determined in the broncho-alveolar wash-off liquid (BAW) using the Goryaev's chamber. In the smears of the BAW liquid precipitate obtained using centrifugation at 200 g for 10 minutes and then stained according to Romanovskcy-Gimza, endopulmonary cytogram was calculated (in percent) [Avtsyn A. P., Lukomskij G. I., Romanova L. K. et al. Endopul'monal'naya cytogramma.//Sov. Med. 1982. No 7. pp. 8-14]."}, "[3]": {"system": "antigen-induced bronchial spasm in sensitized guinea pigs", "experiment": "Systemic anaphylaxis in vivo: antigen-induced bronchial spasm in ovalbumin-sensitized conscious guinea pigs", "parameters": "species or system guinea pig", "source_text": "A bronchial spasm model in conscious guinea pigs actively sensitized by exposure to aerosol ovalbumin as an antigen was used [Kovaleva V. L. “Metodicheskiye ukazaniya po izucheniyu bronkholiticheskikh I protivovospalitel'nykh sredstv.//Rukovodstvo po experimental'nomy (doklinicheskomu) izucheniyu novykh pharmacologicheskikh veshchestv, Moscow. 2000. pp. 242-250].\nGuinea pigs were sensitized by ovalbumin according to the method of Andersson [Anderson P. Antigen-induced bronchial anaphylaxis in actively sensitized guinea-pigs.//Allergy. 1980. Vol. 35. P. 63-71] and in 1-2 months following sensitization, bronchial spasm was induced by aerosol administration of albumin booster dose (3 mg/kg in 1 ml normal saline).\nIn test groups, guinea pigs were for three days administered with tested compounds at doses 10 μg/kg, 50 μg/kg, and 150 μg/kg, using a probe. In the other group of experiments, the tested compounds at dose 50 μg/kg (in 1 ml normal saline) were administered nasally (using a nebulizer) also once daily for three days. The control group was administered with normal saline. One hour post the last administration of substances, ovalbumin was administered by inhalation using a nebulizer, and intensity and duration (in seconds) of bronchial spasm reaction in animals was assessed."}, "[4]": {"system": "allergic rhinitis in guinea pigs", "experiment": "Model of allergic rhinitis in guinea pigs (nasal wash-off cytology)", "format": "in vivo, guinea pig", "settings": "0.1% solution, inhalations daily for 6 days", "procedure": "The model of allergic rhinitis in guinea pigs was used.\nGuinea pigs were immunized according to the certain scheme for 1.5-2 months (Hutson P. A., Church M. K. et al. 1988): the animals were first immunized by intraperitoneal administration of ovalbumin at dose 10 mg/kg at 7-day interval (twice), then ovalbumin solution was inhaled to the guinea pigs using the Pari nebulizer at increasing concentration beginning from 0.1% and reaching 1% at 4-day intervals between inhalations. The last ovalbumin dose was administered into the nasal passages using a micropipette. 24 hours post the last ovalbumin administration nasal washing was collected (through a system of special tubes) and changes in nasal mucosa was assessed using a complex of histological and cytological methods. The compounds tested (0.1% solution) were daily administered in the form of inhalations using nebulizing device for 6 days; at day 6 of administration, antigen (OA) challenge was performed. Nasal wash-off was obtained 24 hours post challenge."}, "[5]": {"settings": "day 31, blood serum, 500 μg/kg orally (Table 24)"}, "[6]": {"settings": "day 31, blood serum, 500 μg/kg orally (Table 25)"}, "[7]": {"settings": "by inhalation, 50 μg/kg, once daily for three days"}, "[8]": {"settings": "intragastric, 10 μg/kg, three days"}, "[9]": {"settings": "intragastric, 150 μg/kg, three days"}}, "data": [{"smiles": "O=C(O)CCCC(=O)N[C@@H](Cc1c[nH]cn1)C(=O)O", "note": "[Compound IV, N^α-glutaryl-L-histidine]", "values": [{"measurement": "Serum total cholesterol", "setting": "[1]; Day 28", "result": "55.5 ± 6.3"}, {"measurement": "Serum total triglyceride levels", "setting": "[1]; Day 28", "result": "66.8 ± 6.7"}, {"measurement": "Serum total cholesterol", "setting": "[1]; Day 31", "result": "49.2 ± 3.9"}, {"measurement": "Serum total triglyceride levels", "setting": "[1]; Day 31", "result": "69.0 ± 13.4"}, {"measurement": "lowered LDL cholesterol", "setting": "[1]; by day 31 of the experiment", "result": 37.7, "unit": "%"}, {"measurement": "lowered total cholesterol level", "setting": "[1]; by day 31 of the experiment", "result": 33.9, "unit": "%"}, {"measurement": "Cholesterol, LDL", "setting": "[1]; [5]", "result": "42.1 ± 3.5", "unit": "mg/100 ml"}, {"measurement": "Cholesterol, Total", "setting": "[1]; [5]", "result": "49.2 ± 3.9", "unit": "mg/100 ml"}, {"measurement": "Cholesterol, VLDL", "setting": "[1]; [5]", "result": "3 ± 0.71", "unit": "mg/100 ml"}, {"measurement": "Triglycerides, LDL", "setting": "[1]; [6]", "result": "29.6 ± 2.4", "unit": "mg/100 ml"}, {"measurement": "Triglycerides, Total", "setting": "[1]; [6]", "result": "69 ± 13.4", "unit": "mg/100 ml"}, {"measurement": "Triglycerides, VLDL", "setting": "[1]; [6]", "result": "33.2 ± 12.3", "unit": "mg/100 ml"}, {"measurement": "Absolute number of Macrophags in broncho-alveolar wash-off", "setting": "[2]", "result": "640.1 ± 57.98", "unit": "in 1 μl"}, {"measurement": "Cytosis (absolute number of cells in 1 μl) in broncho-alveolar wash-off", "setting": "[2]", "result": "1331.3 ± 277.4", "unit": "cells in 1 μl"}, {"measurement": "Duration of acute phase", "setting": "[3]; [7]", "result": 0, "unit": "s"}, {"measurement": "Duration of sub-acute phase", "setting": "[3]; [7]", "result": "400 ± 25", "unit": "s"}, {"measurement": "Duration of acute phase", "setting": "[3]; [8]", "result": "68.0 ± 54.7", "unit": "s"}, {"measurement": "Total reaction time", "setting": "[3]; [8]", "result": "428.0 ± 75.0", "unit": "s"}, {"measurement": "Duration of acute phase", "setting": "[3]; [9]", "result": "72.0 ± 42.1", "unit": "s"}, {"measurement": "Total reaction time", "setting": "[3]; [9]", "result": "337.0 ± 78.5", "unit": "s"}, {"measurement": "Absolute number of Macrophags in nasal wash-off", "setting": "[4]", "result": "6.1 ± 0.75", "unit": "in 1 μl"}, {"measurement": "Absolute number of Neutrophils in nasal wash-off", "setting": "[4]", "result": "3.1 ± 1.02", "unit": "in 1 μl"}, {"measurement": "Citogram of nasal wash-off: Lymphocytes", "setting": "[4]", "result": "5.7 ± 1.54", "unit": "%"}, {"measurement": "Cytosis (absolute number of cells in 1 μl) in nasal wash-off", "setting": "[4]; wash-off 24 hours post challenge", "result": "43.7 ± 6.65", "unit": "°* cells in 1 μl"}]}]}
